Experimental data: paper PMC10182601, “Biological evaluation of novel gemcitabine analog in patient-derived xenograft models of pancreatic cancer” (BMC Cancer, 2023)

Assays:
[1] = In vitro release of 4NSG (dialysis bag, PBS pH 7.4); assay type: physicochemical; conditions: PBS pH 7.4, 37 °C
Procedure: Cumulative in vitro drug release studies were performed as previously described. Free 4NSG (3 mg), freshly prepared and lyophilized 4NSG-SLNs containing approximately 5 mg (suspended in 2 mL PBS) were placed in dialysis bags with molecular weight cut-off (MWCO) of 3.5 kDa) and immersed in their respective labeled 15 mL PBS, (pH 7.4) as the release medium and incubated at 37 °C. The free 4NSG, freshly prepared and lyophilized 4NSG-SLNs solutions were gently stirred at 100 rpm 1 mL aliquots were withdrawn and replenished with fresh PBS (maintained at 37 °C) at 0, 1, 2, 4, 8, and 12 h for analysis. The samples were analyzed for the presence of 4NSG using the HPLC system previously described under the HPLC analysis of 4NSG of the in vitro metabolic stability of the 4NSG section.

[2] = system: pancreatic patient-derived xenograft (PDX) mouse model; set-up: method as in PMID 33015617; conditions: earlier work of the authors ref 22; cited from earlier work
[3] = Stability of 4NSG in PBS (pH 7.4); assay type: physicochemical; conditions: 4NSG 10 µM, PBS pH 7.4, 37 °C, end of the 4 h study
Procedure: (§1) The metabolic stability of 4NSG was examined in the presence of PBS (pH 7.4) and human liver microsomes as previously described. Human liver microsomes were obtained from Sigma-Aldrich. 4NSG (10 µM) was spiked into PBS, or liver microsomes (1 mg protein/mL) and incubated in a shaking water bath at 37 °C for […]. Aliquots (100 µL) were taken after 0, 15, 30, 60, 120, 180, 220 and 240 min of incubation and immediately pretreated with an ice-cold methanolic solution including the internal standard, vortexed for 3 min and centrifuged (12,000 × g, 10 min). Supernatants were stored at -80 C until required for analysis.
(§2) To determine concentrations of 4NSG in PBS and human liver microsomes solutions, supernatants from PBS and human liver microsomes controls were spiked with aliquots of 0.5 μg/ml of 4NSG. The chromatographic analysis was performed according to the method described with minor modifications. The samples were prepared using aliquots of supernatants (10µL) of control (spiked), PBS, and human liver microsomes. […] A plot of the peak areas as a function of 4NSG concentration was plotted, and the linear equation of the calibration curve given as y = mx + c was determined, where y is the peak area, m is the slope, x is the concentration of 4NSG, and c is the y—intercept.

[4] = In vitro metabolic stability of 4NSG in human liver microsomes; assay type: in vitro ADME; conditions: 4NSG 10 µM, liver microsomes 1 mg protein/mL, 37 °C, end of the 4 h study
Procedure: as §1, §2

PPCL-192 cells = experiment: Cell viability (resazurin/Alamar blue), PPCL-192; assay type: cell-based; conditions: Homo sapiens; 48 h treatment
Procedure: (§3) PCa primary cell were cultured with Dulbecco's modified Eagle medium (DMEM) with high glucose and L-glutamine and supplemented with 10% fetal bovine serum (FBS) and 1% penicillin–streptomycin (PenStrep). Briefly, PPCL-192, PPCL-135, PPCL-46, and PPCL-68 were seeded at a density of 1 × 10^3 per well in 96-well plates in triplicates for each drug concentration level and incubated at 5% CO2 and a temperature of 37 °C [32]. At 70 -75% confluency, PPCL-192, PPCL-135, PPCL-46, and PPCL-68 cells were treated with GemHCl, 4NSG-free SLN, and 4NSG-SLN. Varying concentrations of 4NSG-SLN and 4NSG-free SLN were prepared by diluting their stock solutions with a growth medium. For GemHCl, a stock solution was prepared with phosphate-buffered saline (PBS) and serially diluted with a growth medium to prepare different concentrations: 3, 6, 12, 25, 50, and 100 µM. The cells were treated with 100 µL of each drug concentration in triplicates and incubated for 48 h. At termination, 20 µL of 0.05% resazurin sodium salt (Alamar blue®) was added and incubated at optimum conditions (5% CO2, 37 °C) for 2–4 h. GloMax® Explorer Multimode Microplate reader with a fluorescence excitation wavelength of 560/580 nm and emission wavelength of 590/610 nm was used to determine the percent viable cells per concentration calculated.

PPCL-135 cells = experiment: Cell viability (resazurin/Alamar blue), PPCL-135; assay type: cell-based; conditions: Homo sapiens; 48 h treatment
Procedure: as §3

PPCL-68 cells = experiment: Cell viability (resazurin/Alamar blue), PPCL-68; assay type: cell-based; conditions: Homo sapiens; 48 h treatment
Procedure: as §3

[5] = background statement of the introduction, no reference printed with it; cited from earlier work
PPCL-46 cells = experiment: Cell viability (resazurin/Alamar blue), PPCL-46; assay type: cell-based; conditions: Homo sapiens; 48 h treatment
Procedure: as §3

further 4NSG release in the next 2 h ([1]; 2 h to 4 h, dialysis bag)	cumulative 4NSG release within the first 2 h ([1]; dialysis bag MWCO 3.5 kDa)	metabolic stability of 4NSG in PBS [3]	percent unchanged 4NSG in human liver microsomal solution [4]	SMILES	morphological changes to mice's liver and kidney tissues [2]	tumor growth in pancreatic PDX mouse model [2]	IC50 (PPCL-192 cells)	IC50 (PPCL-135 cells)	IC50 (PPCL-68 cells)	plasma circulation half-life [5]	IC50 (PPCL-46 cells)
20%	about 60%	99%	about 90%	CCCCCCCCCCCCCCCCCC(=O)Nc1ccn([C@@H]2OC(CO)C(O)C2(F)F)c(=O)n1 (some centres unmarked) [4NSG, 4-(N)-stearoyl-gemcitabine]	no morphological changes	remarkably reduced tumor growth	–	–	–	–	–
–	–	–	–	Nc1ccn([C@@H]2O[C@H](CO)[C@@H](O)C2(F)F)c(=O)n1 [Gem, Gemcitabine]	–	–	57 ± 1.5 µM	56 ± 1.5 µM	57 ± 2.4 µM	< 15 min	56 ± 1.8 µM
